Source: the NIST ThermoML archive (doi:10.1016/j.jct.2011.02.008)

Assay: xn = mol fraction of the nth substance listed
Settings: Liquid, Vibrating tube method

COC(=O)c1ccccc1 [methyl benzoate] + CCCCCCO
mass density [kg/m3]
Settings | x1 = 0.1004 | x1 = 0.2007 | x1 = 0.3007 | x1 = 0.4013 | x1 = 0.5005 | x1 = 0.6009 | x1 = 0.7 | x1 = 0.8008 | x1 = 0.9009
298.15 K, 10000 kPa | – | – | – | – | 955.1 | 982 | 1008.4 | 1035.4 | 1062.3
298.15 K, 15000 kPa | 851.5 | 878 | 904.9 | 931.7 | 958.3 | 985.1 | 1011.5 | 1038.5 | 1065.3
298.15 K, 20000 kPa | 854.5 | 881.1 | 907.9 | 934.7 | 961.3 | 988.1 | 1014.5 | 1041.5 | 1068.3
298.15 K, 25000 kPa | 857.5 | 884.1 | 910.9 | 937.7 | 964.2 | 991 | 1017.4 | 1044.4 | 1071.2
298.15 K, 30000 kPa | 860.4 | 886.9 | 913.8 | 940.5 | 967.1 | 993.9 | 1020.3 | 1047.2 | 1074
298.15 K, 35000 kPa | 863.2 | 889.7 | 916.6 | 943.3 | 969.9 | 996.6 | 1023 | 1049.9 | 1076.7
298.15 K, 40000 kPa | 865.9 | 892.5 | 919.3 | 946.1 | 972.6 | 999.3 | 1025.7 | 1052.6 | 1079.4
298.15 K, 45000 kPa | 868.6 | 895.1 | 921.9 | 948.7 | 975.3 | 1002 | 1028.4 | 1055.3 | 1082
298.15 K, 50000 kPa | 871.1 | 897.7 | 924.5 | 951.3 | 977.8 | 1004.6 | 1031 | 1057.9 | 1084.6
298.15 K, 55000 kPa | 873.7 | 900.2 | 927.1 | 953.9 | 980.4 | 1007.2 | 1033.5 | 1060.4 | 1087.1
298.15 K, 60000 kPa | 876 | 902.5 | 929.4 | 956.2 | 982.7 | 1009.5 | 1035.9 | 1062.7 | 1089
308.15 K, 100 kPa | 834 | 860.4 | 886.9 | 913.6 | 939.9 | 966.6 | 993 | 1019.9 | 1046.6
308.15 K, 1000 kPa | 834.6 | 861.1 | 887.5 | 914.2 | 940.6 | 967.2 | 993.7 | 1020.5 | 1047.2
308.15 K, 5000 kPa | 837.5 | 864 | 890.4 | 917.1 | 943.4 | 970 | 996.4 | 1023.2 | 1049.9
308.15 K, 10000 kPa | 841 | 867.4 | 893.8 | 920.5 | 946.8 | 973.4 | 999.7 | 1026.5 | 1053.1
308.15 K, 15000 kPa | 844.3 | 870.7 | 897.1 | 923.7 | 950 | 976.6 | 1003 | 1029.7 | 1056.4
308.15 K, 20000 kPa | 847.5 | 873.9 | 900.3 | 926.9 | 953.2 | 979.8 | 1006.1 | 1032.8 | 1059.4
308.15 K, 25000 kPa | 850.6 | 877 | 903.4 | 930 | 956.3 | 982.9 | 1009.1 | 1035.8 | 1062.5
308.15 K, 30000 kPa | 853.6 | 879.9 | 906.4 | 933 | 959.3 | 985.9 | 1012.1 | 1038.8 | 1065.3
308.15 K, 35000 kPa | 856.5 | 882.8 | 909.3 | 935.9 | 962.1 | 988.8 | 1014.9 | 1041.7 | 1068.2
308.15 K, 40000 kPa | 859.3 | 885.7 | 912.1 | 938.7 | 965 | 991.6 | 1017.7 | 1044.5 | 1071
308.15 K, 45000 kPa | 862.1 | 888.4 | 914.9 | 941.5 | 967.8 | 994.3 | 1020.5 | 1047.2 | 1073.7
308.15 K, 50000 kPa | 864.7 | 891.1 | 917.6 | 944.1 | 970.5 | 997.1 | 1023.2 | 1049.9 | 1076.4
308.15 K, 55000 kPa | 867.4 | 893.7 | 920.2 | 946.8 | 973.1 | 999.7 | 1025.8 | 1052.5 | 1079.1
308.15 K, 60000 kPa | 869.7 | 896.1 | 922.6 | 949.4 | 975.5 | 1002.1 | 1028.2 | 1055 | 1081.5
318.15 K, 100 kPa | 826.4 | 852.5 | 878.7 | 905.1 | 931.2 | 957.7 | 983.9 | 1010.7 | 1037.2
318.15 K, 1000 kPa | 827.1 | 853.1 | 879.4 | 905.8 | 931.9 | 958.4 | 984.6 | 1011.3 | 1037.8
318.15 K, 5000 kPa | 830.1 | 856.2 | 882.4 | 908.7 | 934.8 | 961.3 | 987.5 | 1014.2 | 1040.7
318.15 K, 10000 kPa | 833.8 | 859.7 | 886 | 912.3 | 938.4 | 964.9 | 991 | 1017.6 | 1044.1
318.15 K, 15000 kPa | 837.2 | 863.2 | 889.4 | 915.8 | 941.8 | 968.2 | 994.3 | 1021 | 1047.4
318.15 K, 20000 kPa | 840.6 | 866.6 | 892.8 | 919.1 | 945.2 | 971.5 | 997.6 | 1024.3 | 1050.6
318.15 K, 25000 kPa | 843.8 | 869.8 | 896 | 922.3 | 948.4 | 974.6 | 1000.8 | 1027.4 | 1053.8
